Results taken from PMC3816687, “Relationships between Cargo, Cell Penetrating Peptidesand Cell Type for Uptake of Non-Covalent Complexes into Live Cells” (Pharmaceuticals, 2013).
Entries after “also recorded” stand apart in the source; their conditions may differ. Where two headings read alike, the source gives them in different places. *1 amine or outer side, *2 acyl side, *3 side chain or, on linkers, in order; H or OH if unused. Cysteamide = C(CS[*:3])N[*:1]

Tests used:
Leishmania tarentolae [1] = experiment: Internalization of β-galactosidase into Leishmania tarentolae, X-gal staining; type: cell-based; settings: molar ratios 1:5, 1:10, 1:20 of cargo and CPP
Description: (§1) A detailed description of formation of complexes with peptides and proteins is given in a previous publication. Briefly, cargo proteins (ATTO488-BSA, MW ≈ 68 kDa, β-galactosidase, MW ≈ 540 kDa) and the calculated volume of stock solution of CPPs or JBS-Proteoducin were dissolved separately in 100 µL of 1× PBS). Both solutions were thoroughly mixed by repeated pipetting. The mixture was incubated for 30 minutes at 37 °C to achieve complex formation. The molar ratio of cargo to CPPs was usually calculated to 1:10. For internalization of higher amounts of cargo, both the amount of protein and stock solution of CPP or cocktail, respectively, were multiplied. Complexes of the enzyme β-galactosidase and JBS-Proteoducin were formed from 1 µg β-galactosidase and 1 µL stock solution of JBS-Proteoducin under the described conditions.
For transduction cells in an early stage of development were used. To this end stock cultures were diluted 1:10 the day before the experiment into 10 mL of culture medium in 25 cm^2-ventilated tissue culture flasks and were incubated overnight in the dark at 26 °C for optimal proliferation. Cell suspensions with an OD of 1.2 (ca. 4 × 10^7 cells/mL) were used for transduction. The cells were thoroughly washed twice with PBS (5 mL each) by centrifugation (2,000 × g, 3 min). Pellets were resuspended in the original volume of PBS containing 0.1% BSA and aliquoted into 24-well plates. Four hundred µL of cell suspension were used per experiment. Two hundred µL of the complex solutions were added to these cells and mixtures were incubated for 1 h at 26 °C in the dark with gentle agitation. Successively, 1 mL of complete growth medium (LEXSY BHI) was added per sample and incubation was continued at 26 °C for 2 h. Cells were washed twice with PBS (2 mL each) by centrifugation (2,000 × g, 3 min) prior to analysis of transduction.
(§2) Staining of the cells took place in multiwell-plates. Jurkat and Leishmania cells were stained according to the instructions described in [24], using a staining solution containing potassium ferrocyanide, potassium ferricyanide and X-gal. Leishmania cells were stained after finishing the above described transduction protocol. For Jurkat cells the staining was performed after transferring cells from spinning tubes used in the last washing step to 24-well plates. Cells were incubated in staining solution overnight and directly observed in a microscope using a 400-fold magnification.

Jurkat cells = experiment: Internalization of β-galactosidase into Jurkat cells, X-gal staining; type: cell-based, Human; settings: complexes of β-galactosidase and CPP, ratio 1:10, X-Gal staining
Description: as §1
The thoroughly washed cell pellet was suspended in 200 µL of complex solution followed by 400 µL of serum free medium, gently mixed and transferred into 24-well plates. […] After addition of 1.4 mL of complete culture medium incubation was continued at 37 °C for approx. 2 h in a humidified atmosphere containing 5% CO2. The cells were washed by spinning down twice with PBS, three times with glycine buffer (pH 3.0) and twice with PBS.
as §2

COS-7 cells = experiment: Degradation of CPPs by secreted and surface bound proteases of COS-7 cells; settings: 60 min incubation with 0.3 × 10^6 intact cells per well, PBS, 37 °C, 5% CO2, RP18 HPLC, 220 nm
Description: (§3) In a 6-well-plate with 0.3 × 10^6 cells per well the different cell types were cultivated overnight under optimized conditions. Then medium was removed by aspiration (adherent cell) or centrifugation (suspension cells) and washed cells were incubated with CPPs in phosphate buffer solution (PBS). Incubation was performed under the same conditions as the transduction of complexes with the cargo for 1 h at 37 °C in a humidified atmosphere containing 5% CO2. After 15, 30, 45 and 60 min samples of 200 µL were taken and the proteolytic reaction was stopped by addition of 50 µL 37 perc. HCl. After freezing and lyophilization samples were analyzed by analytical high performance liquid chromatography (HPLC), using a RP18 column (Vydac 218TP). In case of MPGβ, for elution a gradient was used from 10% acetonitrile and 90% water, both containing 0.1% trifluoroacetic acid to 60% acetonitrile and 40% water in 50 min. […] The flow rate was 1.0 ml/min and detection was performed at 220 nm.

HeLa cells [2] = settings: non-covalent complexes, X-Gal staining; cited from earlier work
Excerpt: HeLa cells: As shown in our preceding publication, the CPP cocktail JBS-Proteoducin can internalize enzymatic active β-galactosidase into all cell types investigated, including difficult to transfect Kasumi-1 cells. The active enzyme was transported not only into all types of cells but all of the observed cells are also positively stained using the β-galactosidase substrate 5-bromo-4-chloro-indolyl-β-D-galactopyranoside (X-Gal).

HeLa cells [3] = settings: non-covalent complexes; cited from earlier work
Description: Table 4 Intracellular amounts and concentrations. Internalized amounts are calculated from fluorescence intensities in the homogenate directly or after separation by SDS-PAGE. In the case of nucleoside triphosphates quantification was performed by fluorescence spectrometry. Estimation of cell volumes allows the calculation of intracellular concentrations. […] The rank order for the uptake of β-galactosidase into HeLa cells: JBS-Proteoducin > MPGα ≥ MPGβ > CAD-2 >> CPPP-2 // HIV-TAT = penetratin provides evidence for different requirements of enzyme and nucleotide for co ...

Leishmania tarentolae [4] = experiment: Cytotoxicity test for Leishmania tarentolae (morphology and motility); type: cell-based
Description: Leishmania cells were cultivated as described previously, resuspended in PBS and treated with increasing concentrations of cocktails and CPPs for 1 h. Cytotoxic effects were monitored by changes in morphology and motility observed using a microscope at 400-fold magnification.

HeLa cells [5] = experiment: Membrane integrity, CytoTox-Glo assay, HeLa cells; type: cell-based, Human; settings: low concentrations (9.4 µM), 1 h at 37 °C in serum-free medium, triplicates
Description: (§4) Cells were cultured under standard conditions and treated in serum-free medium for 1 h at 37 °C with different CPPs and the cocktail. After removal of CPPs and repeated washings the membrane integrity of the cells was estimated by the bioluminescence test CytoTox-Glo measuring the release of a cytosolic dead-cell protease. The CytoTox-Glo assay was performed according to the supplier’s instructions and adapted to 96-well plates. Bioluminescence was estimated by a luminescence plate reader. Each value was measured in triplicates with an SD of ± 1.2.

different cell lines = experiment: Membrane integrity, CytoTox-Glo assay, different cell lines; type: cell-based; settings: up to 141 µM, 1 h at 37 °C in serum-free medium, triplicates
Description: as §4

NB-4 cells [6] = experiment: Degradation of CPPs by proteases of NB-4 cells; type: in vitro ADME, Human; settings: 60 min incubation with 0.3 × 10^6 intact cells per well, PBS, 37 °C, 5% CO2, RP18 HPLC, 220 nm
Description: as §3

[7] = tested on: most of the cells investigated; experiment: Proteolytic stability of CPPs compared over the cells investigated; type: in vitro ADME; settings: incubation with intact cells up to 60 min, PBS, 37 °C, HPLC
Description: as §3

Leishmania tarentolae [8] = settings: non-covalent complexes; cited from earlier work
Excerpt: Formation of non-covalent complexes between cargo and CPP occurs by optimized interaction of the CPP with the surface of the cargo. These complexes are stabilized by ionic, polar, π-electron-cation, or hydrophobic interactions, hydrogen bonds and common interactions between molecules. Thus, for the same cell type different cargoes show different rank orders for CPPs.

NB-4 cells [9] = experiment: Membrane integrity, CytoTox-Glo assay, NB-4 cells; type: cell-based, Human; settings: low concentrations (9.4 µM), 1 h at 37 °C in serum-free medium, triplicates
Description: as §4

Leishmania tarentolae [10] = experiment: Transduction of ATTO488-BSA into Leishmania tarentolae; type: cell-based; settings: molar ratio 1:10, Leishmania tarentolae, fluorescence plate reader after cell lysis
Description: as §1, with “Complexes of the enzyme β-galactosidase and JBS-Proteoducin were formed from 1 µg β-galactosidase and 1 µL stock solution of JBS-Proteoducin under the described conditions.” left out
For confocal microscopy of fixed and living cells, a LSM 710 laser scanning confocal microscope was used as previously described. […] To avoid bleed-through effects in multi-fluorescence staining experiments, each dye was scanned independently in a multitracking mode. […]
Quantitative fluorescence measurements on internalized fluorescent nucleotide and SDS-PAGE with fluorescent proteins allow the calculation of the internalized amount of cargo. […] The mean volume was calculated to 1.2 × 10^−5 µL. […] Uptake of ATTO488-BSA into Leishmania tarentolae was estimated with a fluorescence plate reader after cell lysis. The volume of Leishmania tarentolae was calculated to 2.0 × 10^−7 µL.

[11] = 1 h in PBS with increasing concentrations, changes in morphology and motility, microscope 400-fold

Substance	rank order for uptake efficiency of β-galactosidase into Leishmania tarentolae (Leishmania tarentolae [1])	rank order for internalization of β-galactosidase into Jurkat cells (Jurkat cells)	stability against proteolytic cleavage by COS-7 cells (HPLC peak) (COS-7 cells)	rank order for internalization of β-galactosidase into HeLa cells (HeLa cells [2])	rank order of uptake efficiency of ATTO488-dUTP into HeLa cells (HeLa cells [3])	Cytotoxicity in Leishmania tarentolae (Leishmania tarentolae [4]; [11])	sensitivity of Leishmania tarentolae cells (Leishmania tarentolae [4]; concentrations of 10 µM, morphology and motility)	membrane integrity of HeLa cells (release of dead-cell protease) (HeLa cells [5])	reduction of membrane integrity with increasing concentrations (different cell lines)	stability against proteolytic cleavage by NB-4 cells (HPLC peak) (NB-4 cells [6])	relative proteolytic stability among the CPPs [7]	rank order for transport of ATTO488-labeled BSA into Leishmania (Leishmania tarentolae [8])	Cytotoxicity in Leishmania tarentolae (Leishmania tarentolae [4])	membrane integrity of NB-4 cells (release of dead-cell protease) (NB-4 cells [9])	Internalized amount, amol per cell (Leishmania tarentolae [10]; cargo ATTO488-BSA 1 µg + CPP)	Internalized amount, amol per cell (Leishmania tarentolae [10]; cargo ATTO488-BSA 10 µg + CPP)
Ac-GALFLGFLGAAGSTMGAWSQPKKKRKV-NH-CH2-CH2-SH [MPGβ, MPG cell penetrating peptide, 5 positive charges]	CAD-2 > MPGα > Histone > MPGβ >> penetratin ≥ HIV-TAT ≥ CPPP-2	JBS-Proteoducin > MPGβ > MPGα > CAD-2 >> CPPP-2	strongly reduced	JBS-Proteoducin > MPGα ≥ MPGβ > CAD-2 >> CPPP-2 // HIV-TAT, penetratin	JBS-Nucleoducin > CAD-2 > MPGα ≥ MPGβ > penetratin >> CPP-2	≤ 5 µM	very sensitive	–	–	–	–	–	–	–	–	–
YGRKKRRQRRR-amide [HIV-TAT (47-57), amphiphilic-cationic cell penetrating peptide, 9 positive charges]	CAD-2 > MPGα > Histone > MPGβ >> penetratin ≥ HIV-TAT ≥ CPPP-2	–	–	JBS-Proteoducin > MPGα ≥ MPGβ > CAD-2 >> CPPP-2 // HIV-TAT, penetratin	not able to transport	≥ 30 µM	–	–	–	–	–	–	–	–	–	–
GLWRALWRLLRSLWRLLWKA-NH-CH2-CH2-SH [CAD-2, des-acetyl, Lys^19-CADY, cell penetrating peptide, 6 positive charges]	CAD-2 > MPGα > Histone > MPGβ >> penetratin ≥ HIV-TAT ≥ CPPP-2	JBS-Proteoducin > MPGβ > MPGα > CAD-2 >> CPPP-2	remains stable	JBS-Proteoducin > MPGα ≥ MPGβ > CAD-2 >> CPPP-2 // HIV-TAT, penetratin	JBS-Nucleoducin > CAD-2 > MPGα ≥ MPGβ > penetratin >> CPP-2	–	–	sensitive	very low	remains stable	nearly unaffected; also recorded: most stable	MPGα >> CAD-2 > histone	≤ 25 µM	sensitive	–	–
Ac-GALFLAFLAAALSLMGLWSQPKKKRKV-NH-CH2-CH2-SH (Ac-GALFLAFLAAALSLMGLWSQPKKKRKV-Cysteamide; SMILES CSCC[C@H](NC(=O)[C@H](CC(C)C)NC(=O)[C@H](CO)NC(=O)[C@H](CC(C)C)NC(=O)[C@H](C)NC(=O)[C@H](C)NC(=O)[C@H](C)NC(=O)[C@H](CC(C)C)NC(=O)[C@H](Cc1ccccc1)NC(=O)[C@H](C)NC(=O)[C@H](CC(C)C)NC(=O)[C@H](Cc1ccccc1)NC(=O)[C@H](CC(C)C)NC(=O)[C@H](C)NC(=O)CNC(C)=O)C(=O)NCC(=O)N[C@@H](CC(C)C)C(=O)N[C@@H](Cc1c[nH]c2ccccc12)C(=O)N[C@@H](CO)C(=O)N[C@@H](CCC(N)=O)C(=O)N1CCC[C@H]1C(=O)N[C@@H](CCCCN)C(=O)N[C@@H](CCCCN)C(=O)N[C@@H](CCCCN)C(=O)N[C@@H](CCCNC(=N)N)C(=O)N[C@@H](CCCCN)C(=O)N[C@H](C(=O)NCCS)C(C)C) [MPGα, MPG cell penetrating peptide, 5 positive charges]	CAD-2 > MPGα > Histone > MPGβ >> penetratin ≥ HIV-TAT ≥ CPPP-2	JBS-Proteoducin > MPGβ > MPGα > CAD-2 >> CPPP-2	–	JBS-Proteoducin > MPGα ≥ MPGβ > CAD-2 >> CPPP-2 // HIV-TAT, penetratin	JBS-Nucleoducin > CAD-2 > MPGα ≥ MPGβ > penetratin >> CPP-2	–	–	–	–	–	–	MPGα >> CAD-2 > histone	≤ 5 µM	–	0.8 x 10^−2 amol per cell	3.3 x 10^−2 amol per cell
KLPVM [CPPP-2, cell penetrating pentapeptide, 2 positive charges]	CAD-2 > MPGα > Histone > MPGβ >> penetratin ≥ HIV-TAT ≥ CPPP-2	JBS-Proteoducin > MPGβ > MPGα > CAD-2 >> CPPP-2	–	JBS-Proteoducin > MPGα ≥ MPGβ > CAD-2 >> CPPP-2 // HIV-TAT, penetratin	JBS-Nucleoducin > CAD-2 > MPGα ≥ MPGβ > penetratin >> CPP-2	≥ 100 µM	–	–	–	–	–	–	–	–	–	–
